This note sets out measurements from ChEMBL document CHEMBL1129615, “Synthesis and quantitative structure-activity relationship of 17 beta-(hydrazonomethyl)-5 beta-androstane-3 beta,14 beta-diol derivatives that bind to Na+,K(+)-ATPase receptor” (J Med Chem, 1996).

What is called pKa is the pH at which an ionisable group is half protonated. Higher therefore signals a group that holds its proton tightly.

The first data set addresses Sodium/potassium-transporting ATPase. Briefly: Displacement of [3H]ouabain from dog kidney Na+/K+ ATPase. It is filed as protein-complex assay, Canis lupus familiaris.
Take `C[C@]12CC[C@H](O)C[C@H]1CC[C@@H]1[C@@H]2CC[C@]2(C)[C@@H](/C=N/Nc3ncccn3)CC[C@]12O`: the “-Log IC50” value is 4.6.
The same measure, in the same setting: under `C[C@]12CC[C@H](O)C[C@H]1CC[C@@H]1[C@@H]2CC[C@]2(C)[C@@H](/C=N/NC3=NCCN3)CC[C@]12O` stands 6.7.
Take `C[C@]12CC[C@H](O)C[C@H]1CC[C@@H]1[C@@H]2CC[C@]2(C)[C@@H](/C=N/N=C(\N)S)CC[C@]12O`: the “-Log IC50” value is listed as 4.7.
Same read-out and setting: under `C[C@]12CC[C@H](O)C[C@H]1CC[C@@H]1[C@@H]2CC[C@]2(C)[C@@H](/C=N/N=C(\N)Nc3ccccc3)CC[C@]12O` stands 5.2; under `C/C(=N\N=C(N)N)[C@H]1CC[C@]2(O)[C@@H]3CC[C@@H]4C[C@@H](O)CC[C@]4(C)[C@H]3CC[C@]12C`, 6.7.
Still for that read-out and setting: under `CSC(=N)N/N=C/[C@H]1CC[C@]2(O)[C@@H]3CC[C@@H]4C[C@@H](O)CC[C@]4(C)[C@H]3CC[C@]12C` stands 5.7; under `C/N=C(\C[N+](=O)[O-])N/N=C/[C@H]1CC[C@]2(O)[C@@H]3CC[C@@H]4C[C@@H](O)CC[C@]4(C)[C@H]3CC[C@]12C`, 4.5; under `C[C@]12CC[C@H](O)C[C@H]1CC[C@@H]1[C@@H]2CC[C@]2(C)[C@@H](/C=N/N=C(N)N)CC[C@]12O.Cl`, 7.
Same read-out and setting: under `C[C@]12CC[C@H](O)C[C@H]1CC[C@@H]1[C@@H]2CC[C@]2(C)[C@@H](/C=N/NC3=NCCCN3)CC[C@]12O` stands 6.6; under `C[C@]12CC[C@H](O)C[C@H]1CC[C@@H]1[C@@H]2CC[C@]2(C)[C@@H](/C=N/Nc3ccccn3)CC[C@]12O`, 5.7; under `C[C@]12CC[C@H](O)C[C@H]1CC[C@@H]1[C@@H]2CC[C@]2(C)[C@@H](/C=N/NC(N)=O)CC[C@]12O`, 5.1.
Regarding `C[C@]12CC[C@H](O)C[C@H]1CC[C@@H]1[C@@H]2CC[C@]2(C)[C@@H](/C=N/NC3=NC(=O)CN3)CC[C@]12O`, the “-Log IC50” value was found to be 4.7.
The same measure, in the same setting: as for `CN1CCN=C1N/N=C/[C@H]1CC[C@]2(O)[C@@H]3CC[C@@H]4C[C@@H](O)CC[C@]4(C)[C@H]3CC[C@]12C`, the figure is 6.

Tested on in the next data set: not listed separately
Briefly: Acid dissociation constant was determined. In kind it is ADME.
As to `C[C@]12CC[C@H](O)C[C@H]1CC[C@@H]1[C@@H]2CC[C@]2(C)[C@@H](/C=N/Nc3ncccn3)CC[C@]12O`, the pKa was determined as 3.44.
The same measure, in the same setting: under `C[C@]12CC[C@H](O)C[C@H]1CC[C@@H]1[C@@H]2CC[C@]2(C)[C@@H](/C=N/NC3=NCCN3)CC[C@]12O` stands 8.42.
The same measure, in the same setting: as for `C[C@]12CC[C@H](O)C[C@H]1CC[C@@H]1[C@@H]2CC[C@]2(C)[C@@H](/C=N/N=C(\N)S)CC[C@]12O`, the figure is 0.86.
On the same count and under the same terms, as for `C[C@]12CC[C@H](O)C[C@H]1CC[C@@H]1[C@@H]2CC[C@]2(C)[C@@H](/C=N/N=C(\N)Nc3ccccc3)CC[C@]12O`, the figure is 8.62.
`C/C(=N\N=C(N)N)[C@H]1CC[C@]2(O)[C@@H]3CC[C@@H]4C[C@@H](O)CC[C@]4(C)[C@H]3CC[C@]12C` had a pKa of 9.49.
On the same count and under the same terms, as for `CSC(=N)N/N=C/[C@H]1CC[C@]2(O)[C@@H]3CC[C@@H]4C[C@@H](O)CC[C@]4(C)[C@H]3CC[C@]12C`, the figure is 5.76; as for `C/N=C(\C[N+](=O)[O-])N/N=C/[C@H]1CC[C@]2(O)[C@@H]3CC[C@@H]4C[C@@H](O)CC[C@]4(C)[C@H]3CC[C@]12C`, 2.37; as for `C[C@]12CC[C@H](O)C[C@H]1CC[C@@H]1[C@@H]2CC[C@]2(C)[C@@H](/C=N/N=C(N)N)CC[C@]12O.Cl`, 9.35.
Same read-out and setting: under `C[C@]12CC[C@H](O)C[C@H]1CC[C@@H]1[C@@H]2CC[C@]2(C)[C@@H](/C=N/NC3=NCCCN3)CC[C@]12O` stands 10.4; under `C[C@]12CC[C@H](O)C[C@H]1CC[C@@H]1[C@@H]2CC[C@]2(C)[C@@H](/C=N/Nc3ccccn3)CC[C@]12O`, 6.34.
In the case of `C[C@]12CC[C@H](O)C[C@H]1CC[C@@H]1[C@@H]2CC[C@]2(C)[C@@H](/C=N/NC(N)=O)CC[C@]12O`, the pKa was determined as 1.78.
Same read-out and setting: under `C[C@]12CC[C@H](O)C[C@H]1CC[C@@H]1[C@@H]2CC[C@]2(C)[C@@H](/C=N/NC3=NC(=O)CN3)CC[C@]12O` stands 3.58; under `CN1CCN=C1N/N=C/[C@H]1CC[C@]2(O)[C@@H]3CC[C@@H]4C[C@@H](O)CC[C@]4(C)[C@H]3CC[C@]12C`, 8.05.
